From US9108921B2, “Therapeutic compounds and compositions” (AGIOS PHARMACEUTICALS, INC, priority 2014, dated 2015)

What was measured:
PKR R510Q = PKR R510Q (Homo sapiens, UniProt P30613, R510Q); assay: PKR Mutant Assay, AC50 against PKR R510Q; format: biochemical; conditions: mutant PKR R510Q enzyme
Procedure, shortened: (§1)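 Human PKR (WT or mutant, 80-400 ng/well) in 50 mM Tris pH 7.5, 100 mM KCl, 5 mM MgCl2, 1 mM DTT, 0.03% BSA with PEP 0.1-0.5 mM, NADH 180 uM and LDH, preincubated 60 min at room temperature with compound (11-point 3-fold series from 100 μM final, 1% DMSO). ADP 0.22-1.65 mM started reaction; A340 followed.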

PKR R532W = PKR R532W (Homo sapiens, UniProt P30613, R532W); assay: PKR Mutant Assay, AC50 against PKR R532W; format: biochemical; conditions: mutant PKR R532W enzyme
Chain of PKR R532W (P30613 whole entry R532W): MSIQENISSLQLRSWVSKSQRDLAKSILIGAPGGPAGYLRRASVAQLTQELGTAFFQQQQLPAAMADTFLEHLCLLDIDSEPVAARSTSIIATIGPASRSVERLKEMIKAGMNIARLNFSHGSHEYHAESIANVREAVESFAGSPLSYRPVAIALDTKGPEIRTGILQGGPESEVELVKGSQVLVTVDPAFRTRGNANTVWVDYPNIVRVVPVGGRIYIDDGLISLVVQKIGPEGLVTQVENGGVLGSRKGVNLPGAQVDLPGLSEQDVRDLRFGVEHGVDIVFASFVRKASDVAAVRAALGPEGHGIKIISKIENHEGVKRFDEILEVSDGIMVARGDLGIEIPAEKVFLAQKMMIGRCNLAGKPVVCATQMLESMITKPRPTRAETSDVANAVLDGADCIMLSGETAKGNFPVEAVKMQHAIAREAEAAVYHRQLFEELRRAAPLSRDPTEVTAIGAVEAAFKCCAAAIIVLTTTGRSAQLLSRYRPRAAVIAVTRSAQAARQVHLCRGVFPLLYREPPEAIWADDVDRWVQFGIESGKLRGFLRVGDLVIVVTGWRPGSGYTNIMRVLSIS
Procedure, shortened: as §1

PKR WT [1] = target: T1, PKR WT (Homo sapiens, UniProt P30613); assay: PKR WT enzymatic AC50 assay; format: biochemical; conditions: wild type PKR
T1 sequence (P30613 whole entry): as the sequence (P30613 whole entry R532W) above, with W532R counted along it
Procedure, shortened: as §1

PKR WT [2] = target: T1, PKR WT; assay: PKR WT cell based AC50 assay; conditions: wild type PKR

Chain of PKR R510Q (P30613 whole entry R510Q): as the sequence (P30613 whole entry R532W) above, with R510Q, W532R counted along it

| AC50 (PKR R510Q) [nM] | AC50 (PKR R532W) [nM] | AC50 (PKR WT [1]) [nM] | AC50 (PKR WT [2]) [nM] | SMILES |
| --- | --- | --- | --- | --- |
| < 100 | < 100 | < 100 | 101 to 1000 | O=C(c1ccc(NS(=O)(=O)c2cccc3scnc23)cc1)N1CCC(O)(/C=C/CC(F)(F)F)CC1 [Compound 404, (E)-N-(4-(4-hydroxy-4-(4,4,4-trifluorobut-1-enyl)piperidine-1-carbonyl)phenyl)benzo[d]thiazole-4-sulfonamide] |
| < 100 | < 100 | < 100 | < 100 | CCc1ccccc1C1(O)CCN(C(=O)c2ccc(NS(=O)(=O)c3cccc4cccnc34)cc2)CC1 [Compound 127, N-(4-(4-(2-ethylphenyl)-4-hydroxypiperidine-1-carbonyl)phenyl)quinoline-8-sulfonamide] |
| < 100 | < 100 | < 100 | < 100 | CC(C)CC1(C=O)CCN(C(=O)c2ccc(NS(=O)(=O)c3cccc4cccnc34)cc2)CC1 [Compound 137, N-(4-(4-formyl-4-isobutylpiperidine-1-carbonyl)phenyl)quinoline-8-sulfonamide] |
| 101 to 1000 | 101 to 1000 | < 100 | < 100 | Nc1c(O)cccc1S(=O)(=O)Nc1ccc(C(=O)N2CCC(O)(c3ccccc3Cl)CC2)cc1 [Compound 382, 2-amino-N-(4-(4-(2-chlorophenyl)-4-hydroxypiperidine-1-carbonyl)phenyl)-3-hydroxybenzenesulfonamide] |
| 101 to 1000 | < 100 | < 100 | 101 to 1000 | O=C(c1ccc(NS(=O)(=O)c2cccc3ccoc23)cc1)N1CCC(O)(c2ccccc2Cl)CC1 [Compound 186, N-(4-(4-(2-chlorophenyl)-4-hydroxypiperidine-1-carbonyl)phenyl)benzofuran-7-sulfonamide] |
| < 100 | < 100 | < 100 | < 100 | O=C(c1ccc(NS(=O)(=O)c2cccc3cccnc23)cc1F)N1CCC(O)(Cc2ccccc2)CC1 [Compound 115, N-(4-(4-benzyl-4-hydroxypiperidine-1-carbonyl)-3-fluorophenyl)quinoline-8-sulfonamide] |
| 101 to 1000 | < 100 | < 100 | < 100 | O=C(c1ccc(NS(=O)(=O)c2cccc3nccnc23)cc1)N1CCC(O)(c2ccccc2Cl)CC1 [Compound 162, N-(4-(4-(2-chlorophenyl)-4-hydroxypiperidine-1-carbonyl)phenyl)quinoxaline-5-sulfonamide] |
| 101 to 1000 | < 100 | < 100 | < 100 | CC(C)CC1(O)CCN(C(=O)c2ccc(NS(=O)(=O)c3ccc(F)c4cccnc34)cc2)CC1 [Compound 203, 5-fluoro-N-(4-(4-hydroxy-4-isobutylpiperidine-1-carbonyl)phenyl)quinoline-8-sulfonamide] |
| 101 to 1000 | < 100 | < 100 | < 100 | O=C(c1ccc(NS(=O)(=O)c2cccc3cccnc23)cc1)N1CCC(O)(c2cccc(F)c2)CC1 [Compound 142, N-(4-(4-(3-fluorophenyl)-4-hydroxypiperidine-1-carbonyl)phenyl)quinoline-8-sulfonamide] |
| < 100 | < 100 | < 100 | < 100 | Cc1cc(C(=O)N2CCC(O)(Cc3ccccc3)CC2)ccc1NS(=O)(=O)c1cccc2cccnc12 [Compound 101, N-(4-(4-benzyl-4-hydroxypiperidine-1-carbonyl)-2-methylphenyl)quinoline-8-sulfonamide] |
| 101 to 1000 | < 100 | < 100 | < 100 | O=C(c1ccc(NS(=O)(=O)c2cccc3cccnc23)cc1)N1CCC(O)(c2cccnc2C(F)(F)F)CC1 [Compound 159, N-(4-(4-hydroxy-4-(2-(trifluoromethyl)pyridin-3-yl)piperidine-1-carbonyl)phenyl)quinoline-8-sulfonamide] |
| < 100 | 101 to 1000 | < 100 | 101 to 1000 | O=C(c1ccc(NS(=O)(=O)c2cccc3c(O)ncnc23)cc1)N1CCC(O)(/C=C/CC(F)(F)F)CC1 [Compound 424] |
